Assay [1] concerns mouse acetic acid writhing model. Nature of the assay: Mouse acetic acid writhing model (effects on pain). The assay is classed as in vivo. The conditions noted are these: oral, 45 minutes before 0.6% acetic acid i.p., read-out: ED50 (dose by which the writhing response was inhibited by 50%). On the procedure: The mouse acetic acid writhing model, by which pain can be evaluated, was used to evaluate the analgesic effect of Compound (I).
Male ddY mice of 5 to 6 weeks old were fasted for 16 hours while allowing them to freely drink water, and a test compound solution or its vehicle was orally administered (10 mL/kg) to them. DMSO:Tween80:distilled water (1:1:8) or 27% hydroxypropyl-β-cyclodextrin (hereinafter “HP-β-CD”) was used as a vehicle of test compound solutions. Forty five minutes after the administration, 0.6% acetic acid solution (10 mL/kg) was intraperitoneally administered thereto to induce writhing response (i.e., the behavior to stretch the body and/or bend the body backward). The number of the writhing response observed for 10 minutes from 10 minutes after the administration of acetic acid solution was counted, which was taken as an indicator of pain.
Taking the mean number of writhing response of the vehicle group as 100%, the dose of a test compound by which the response was inhibited by 50% was expressed as “ED50”.
(Writhing tests count abdominal constrictions after an irritant is injected.)

Assay [2] has as its system cyclophosphamide-induced pollakiuria model rats. Nature of the assay: Effects in cyclophosphamide-induced pollakiuria model rats (continuous cystometrograms). The conditions noted are these: 5 mg/kg intravenous; 20 minutes after vs 20 minutes before administration; compared to the vehicle group, p<0.05. The assay is classed as in vivo, rat. On the procedure: In the experiments, 6 to 7 female SD rats of 7 to 11 weeks old were used for one experimental group. The pollakiuria model (Lecci A et al., British Journal of Pharmacology, 2000, vol. 130, p. 331) was prepared by intraperitoneally administering cyclophosphamide (SIGMA) to rats (150 mg/kg). This model has been considered to be useful as a model of urine storage disorders associated with inflammatory disease, in particular, a model of pollakiuria of interstitial cystitis. Four to five hours after administration of cyclophosphamide, pollakiuria model rats were anesthetized by intraperitoneal administration of urethane (1 g/kg). Thereafter, a small incision was formed in the hypogastrium, and both ureters were ligated, followed by forming small incision in the ureters at the side of the kidney. Next, the bladder apex of each pollakiuria model rat was incised, and a polyethylene tube filled with physiological saline was inserted and indwelled. […]
The number of voiding episodes was counted based on CMGs. Taking the number of voiding episodes counted for a time period of 20 minutes before the administration of the test compound as 100%, the number of voiding episodes counted for a time period of 20 minutes after the administration of the test compound was expressed in %, which was used as the ratio of change in the number of voiding episodes. […]

In assay [3] the target is T1, human muscarinic M1 receptor (Homo sapiens, UniProt P11229).
T1 construct: expressed in transfected cells; host or cells: CHO cells
T1 sequence (P11229 1-460): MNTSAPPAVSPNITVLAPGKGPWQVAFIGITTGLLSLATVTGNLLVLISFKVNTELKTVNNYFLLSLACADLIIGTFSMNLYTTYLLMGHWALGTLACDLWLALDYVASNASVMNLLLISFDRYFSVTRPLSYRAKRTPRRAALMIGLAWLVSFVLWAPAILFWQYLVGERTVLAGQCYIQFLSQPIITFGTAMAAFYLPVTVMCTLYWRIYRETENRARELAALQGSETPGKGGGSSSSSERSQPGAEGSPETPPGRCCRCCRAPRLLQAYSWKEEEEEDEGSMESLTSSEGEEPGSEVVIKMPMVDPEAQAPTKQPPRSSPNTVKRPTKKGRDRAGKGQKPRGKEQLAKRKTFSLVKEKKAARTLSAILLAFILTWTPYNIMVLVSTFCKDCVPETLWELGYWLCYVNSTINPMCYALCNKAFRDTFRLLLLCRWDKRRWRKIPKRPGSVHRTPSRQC
Kind of assay: Binding ability to human muscarinic receptors ([3H]N-Methylscopolamine). The conditions noted are these: 0.8 nmol/L [3H]N-Methylscopolamine, CHO cells. On the procedure:
(§1) CHO cells expressing human muscarinic M1, 2, 3, 4 and 5 receptors, respectively, were used (Buckley N J et al., Mol. Pharmacol., 1989, vol. 35, no. 4, p. 469-476). Receptor binding experiments were carried out according to a conventional method (Luthin G R et al., Pharmacol Exp Ther., 1984, vol. 228, no. 3, p. 648-655). As a radiolabeled ligand, 0.8 nmol/L [^3H]N-Methylscopolamine was used; and as a nonspecific ligand, 1 μmol/L Atoropine was used.

In assay [4] the target is T2, human muscarinic M2 receptor (Homo sapiens, UniProt P08172).
T2 construct: expressed in transfected cells; host or cells: CHO cells
T2 sequence (P08172 1-466): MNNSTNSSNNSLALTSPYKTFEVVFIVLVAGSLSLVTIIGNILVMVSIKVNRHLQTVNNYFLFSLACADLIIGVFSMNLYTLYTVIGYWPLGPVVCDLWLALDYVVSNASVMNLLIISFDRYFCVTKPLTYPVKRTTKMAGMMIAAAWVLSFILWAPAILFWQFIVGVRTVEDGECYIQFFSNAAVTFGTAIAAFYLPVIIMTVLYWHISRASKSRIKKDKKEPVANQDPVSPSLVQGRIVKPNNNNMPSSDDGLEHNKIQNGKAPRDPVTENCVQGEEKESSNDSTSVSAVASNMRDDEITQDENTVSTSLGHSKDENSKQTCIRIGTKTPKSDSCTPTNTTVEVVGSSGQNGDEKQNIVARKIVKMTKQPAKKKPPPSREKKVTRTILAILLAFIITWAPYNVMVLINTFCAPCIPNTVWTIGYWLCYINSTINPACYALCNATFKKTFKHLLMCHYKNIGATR
The description is as above. Conditions: 0.8 nmol/L [3H]N-Methylscopolamine, CHO cells. On the procedure:
as §1

Assay [5] has as its target T3, human muscarinic M3 receptor (Homo sapiens, UniProt P20309).
T3 construct: expressed in transfected cells; host or cells: CHO cells
Described as above. Conditions: 0.8 nmol/L [3H]N-Methylscopolamine, CHO cells. The method, then: as §1

In assay [6] the target is T4, human muscarinic M4 receptor (Homo sapiens, UniProt P08173).
T4 construct: expressed in transfected cells; host or cells: CHO cells
T4 sequence (P08173 1-479): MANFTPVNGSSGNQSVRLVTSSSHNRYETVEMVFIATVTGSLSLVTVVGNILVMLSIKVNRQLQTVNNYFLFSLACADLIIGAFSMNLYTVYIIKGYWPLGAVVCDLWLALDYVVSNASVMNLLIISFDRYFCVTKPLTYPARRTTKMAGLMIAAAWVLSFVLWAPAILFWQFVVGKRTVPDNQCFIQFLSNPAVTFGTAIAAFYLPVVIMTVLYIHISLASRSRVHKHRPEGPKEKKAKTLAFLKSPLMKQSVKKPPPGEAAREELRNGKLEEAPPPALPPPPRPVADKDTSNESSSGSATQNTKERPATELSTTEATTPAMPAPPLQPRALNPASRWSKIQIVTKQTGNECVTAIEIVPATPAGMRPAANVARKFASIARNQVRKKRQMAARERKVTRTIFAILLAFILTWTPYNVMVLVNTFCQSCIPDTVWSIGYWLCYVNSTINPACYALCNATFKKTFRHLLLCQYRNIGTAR
The description is as above. The conditions noted are these: 0.8 nmol/L [3H]N-Methylscopolamine, CHO cells. The method, then:
as §1

Assay [7] concerns the target T5, human muscarinic M5 receptor (Homo sapiens, UniProt P08912).
T5 construct: expressed in transfected cells; host or cells: CHO cells
T5 sequence (P08912 1-532): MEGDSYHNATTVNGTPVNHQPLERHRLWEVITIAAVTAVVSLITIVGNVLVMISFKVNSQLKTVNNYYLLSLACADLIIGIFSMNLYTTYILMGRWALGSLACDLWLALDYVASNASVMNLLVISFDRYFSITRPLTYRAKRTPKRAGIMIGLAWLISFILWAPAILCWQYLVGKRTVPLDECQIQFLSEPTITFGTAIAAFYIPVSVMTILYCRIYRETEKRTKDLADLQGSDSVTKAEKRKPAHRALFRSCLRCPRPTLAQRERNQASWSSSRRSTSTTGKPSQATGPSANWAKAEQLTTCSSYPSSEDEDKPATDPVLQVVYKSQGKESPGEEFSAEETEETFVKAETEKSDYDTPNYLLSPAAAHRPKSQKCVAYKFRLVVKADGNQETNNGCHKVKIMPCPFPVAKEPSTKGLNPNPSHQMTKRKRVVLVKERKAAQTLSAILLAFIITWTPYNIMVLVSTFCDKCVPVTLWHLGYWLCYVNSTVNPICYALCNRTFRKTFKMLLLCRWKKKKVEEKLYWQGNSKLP
Described as above. The conditions noted are these: 0.8 nmol/L [3H]N-Methylscopolamine, CHO cells. The method, then: as §1

For assay [8], the system named is muscarinic receptor subtypes. Kind of assay: Binding ability to human muscarinic receptors, overall statement. Conditions: any of M1 to M5; 10 μmol/L. The method, then: as §1

We go through ten compounds from patent US8642625B2, “Therapeutic agent or preventive agent for urine collection disorder” (Toray Industries, Inc., priority 2010, dated 2014).

Where two headings read alike, the source gives them in different places.

T3 sequence (P20309 whole entry): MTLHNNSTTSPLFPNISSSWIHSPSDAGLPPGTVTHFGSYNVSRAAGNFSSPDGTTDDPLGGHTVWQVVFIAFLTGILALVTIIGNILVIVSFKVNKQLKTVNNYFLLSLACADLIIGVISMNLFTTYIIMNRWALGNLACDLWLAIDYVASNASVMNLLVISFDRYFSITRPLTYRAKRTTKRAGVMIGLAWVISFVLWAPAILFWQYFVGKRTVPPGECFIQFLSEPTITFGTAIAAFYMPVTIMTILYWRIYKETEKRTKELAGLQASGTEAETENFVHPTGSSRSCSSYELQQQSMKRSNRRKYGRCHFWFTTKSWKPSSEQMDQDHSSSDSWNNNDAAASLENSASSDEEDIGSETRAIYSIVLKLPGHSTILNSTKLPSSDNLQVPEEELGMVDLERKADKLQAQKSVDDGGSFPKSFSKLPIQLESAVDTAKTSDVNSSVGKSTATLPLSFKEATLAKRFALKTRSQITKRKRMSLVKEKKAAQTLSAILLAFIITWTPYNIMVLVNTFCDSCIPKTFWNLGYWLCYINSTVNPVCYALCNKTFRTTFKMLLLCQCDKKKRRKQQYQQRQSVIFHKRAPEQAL

In general, ED50 refers to the midpoint of the dose-response relation. As for `COc1ccc(-n2nc(C3(O)CCC(O)CC3)cc2-c2ccc(C)cc2)cc1F` (stereo not shown) [Compound 54], in assay [1] (Vehicle B (HP-β-CD)), the ED50 worked out at 3.73 mg/kg. With `COc1ccc(-n2nc(C3(O)CCC(=O)CC3)cc2-c2ccc(C)cc2)cc1` [Compound 4, 4-hydroxy-4-(1-(4-methoxyphenyl)-5-(p-tolyl)-1H-pyrazol-3-yl)cyclohexan-1-one], in assay [1] (Vehicle A (DMSO:Tween80:distilled water=1:1:8)), the median effective dose (ED50) is 1.95 mg/kg. As for `COc1ccc(-n2nc(C3(O)CCC(O)CC3)cc2-c2ccc(C)nc2)cc1` (stereo not drawn) [Compound 15, 1-(1-(4-methoxyphenyl)-5-(6-methylpyridin-3-yl)-1H-pyrazol-3-yl)cyclohexan-cis-1,4-diol], in assay [1] (Vehicle B (HP-β-CD)), the ED50 stood at 6.07 mg/kg. Regarding `Cc1ccc(-c2cc(C3(O)CCC(O)CC3)nn2-c2ccc(C#N)cc2)cc1` (stereo not shown) [Compound 49], the 50% effective dose (ED50) in assay [1] (Vehicle B (HP-β-CD)) came out at 2.69 mg/kg. For `COc1ccc(-n2nc(C3(O)CCC(OC(=O)OC4CCCCC4)CC3)cc2-c2ccc(C)cc2)cc1` (stereo not drawn) [Compound 60, cyclohexyl 4-hydroxy-4-(1-(4-methoxyphenyl)-5-(p-tolyl)-1H-pyrazol-3-yl)-cis-cyclohexyl carbonate], the 50% effective dose (ED50) in assay [1] (Vehicle B (HP-β-CD)) came out at 6.18 mg/kg. The same measure, in the same setting: the result for `COc1ccc(-n2nc(C3(O)CCC(O)CC3)cc2-c2ccc(C#N)cc2)cc1` (stereo not shown) [Compound 51] reads 4.69 mg/kg; that for `CCOC(=O)OC1CCC(O)(c2cc(-c3ccc(C)cc3)n(-c3ccc(OC)cc3)n2)CC1` (stereo not shown) [Compound 61], 4.79 mg/kg; that for `COc1ccc(-n2nc(C3(O)CCC(OC(C)=O)CC3)cc2-c2ccc(C)cc2)cc1` (stereo not shown) [Compound 12, c-4-hydroxy-4-(1-(4-methoxyphenyl)-5-(p-tolyl)-1H-pyrazol-3-yl)-cyclohexan-r-1-yl acetate], 1.77 mg/kg.

On to `COc1ccc(-n2nc(C3(O)CCC(O)CC3)cc2-c2ccc(C)cc2)cc1` (stereo not drawn) [Compound 3, 1-(1-(4-methoxyphenyl)-5-(p-tolyl)-1H-pyrazol-3-yl)cyclohexan-cis-1,4-diol], for which, in assay [2], the “increase in the number of voiding episodes (ratio of change in the number of voiding episodes)” value is on record as “significantly improved”. Moreover, the “Inhibition Ratio by 10 μmol/L Compound 3 (%)” value is −10% in assay [3]; −6% in assay [4]; −4% in assay [5]; −1% in assay [6]; −4% in assay [7]. Also, in assay [8], the “binding to muscarinic receptor subtypes” value is recorded as “did not bind”.

For the compound `COc1ccc(-c2nc(C3(O)CCC(O)(C(F)(F)F)CC3)sc2-c2ccc(C)cc2)cc1` (stereo not drawn) [Compound 46, 1-(4-(4-methoxyphenyl)-5-(p-tolyl)thiazol-2-yl)-4-(trifluoromethyl)cyclohexan-cis-1,4-diol], the ED50 in assay [1] (Vehicle B (HP-β-CD)) was 9.65 mg/kg.
